Assay results reported in patent publication US5596002A, “Method of treating chloroquine-resistant malaria with aminoquinoline derivatives” (Hoffmann-La Roche Inc., priority 1993, dated 1997).
≈ marks a conversion by molar mass, not a printed value.

Experiments:
Type in all cases: cell-based
[1] = test system: Plasmodium falciparum, chloroquine-resistant strain RFCR3; experiment: activity against P. falciparum in vitro, strain RFCR3; settings: chloroquine-resistant strain RFCR3, 48 h-72 h, read-out: IC50 (50% growth inhibition)
Procedure: (§1) Test method for the determination of the activity against P. falciparum in vitro
(§2) The preparations of the present invention were tested on intraerythrocytary stages of P. falciparum from asynchronous cultures according to the method of Desjardin et al. (Desjardins, R. E. et al: Quantitative assessment of antimalarial activity in vitro by a semiautomated microdilution technique. Antimicrob. Agents Chemother. 16, 710-718, (1979)).
(§3) The culture medium consisted of RPMI 1640 with the addition of 25 mM HEPES, 25 mM NaHCO3, […] neomycin and 10% human serum (A^+). Human-A^+ erythrocytes were used as the P. falciparum host cells. The parasites were maintained at 37° C. in an atmosphere of 3% O2, 4% CO2, 93% N2 and at 95% relative humidity.
(§4) In order to determine the activity, the preparations were dissolved in DMSO, pre-diluted in the culture medium to a suitable starting concentration and subsequently titrated-out into microtitre plates in the 2nd stage over 6-7 steps. After the addition of the parasite culture (0.7% parasitemia in 2.5% erythrocyte suspension), the test plates were incubated under the conditions given above for 48 h-72 h. The parasite growth in the different preparation concentrations was determined using [G-^3 H]-hypoxanthin incorporation compared to untreated control cultures on the same test plates. The 50% growth inhibition (IC50) was calculated according to logit regression analysis from the resulting dosage-activity curve.
(§5) The preparations were tested on at least one chloroquine-resistant and one chloroquine-sensitive P. falciparum strain. Additional sensitive and resistant strains were also included for further characterization.
(§6) Table 1 below contains the IC50 values measured in vitro for the growth inhibition of chloroquine-sensitive and chloroquine-resistant strains of the human pathogenic Plasmodium falciparum.

[2] = test system: Plasmodium falciparum, chloroquine-sensitive strain NF54; experiment: activity against P. falciparum in vitro, strain NF54; settings: Plasmodium falciparum; chloroquine-sensitive strain NF54; 48 h-72 h; read-out: IC50 (50% growth inhibition)
Procedure: as §1, §2, §3, §4, §5, §6

[3] = test system: Plasmodium falciparum, chloroquine-resistant strain K1; experiment: activity against P. falciparum in vitro, strain K1; settings: Plasmodium falciparum; chloroquine-resistant strain K1; 48 h-72 h; read-out: IC50 (50% growth inhibition)
Procedure: as §1, §2, §3, §4, §5, §6

[4] = test system: Plasmodium falciparum, chloroquine-resistant strain Indo; experiment: activity against P. falciparum in vitro, strain Indo; settings: chloroquine-resistant strain Indo, 48 h-72 h, read-out: IC50 (50% growth inhibition)
Procedure: as §1, §2, §3, §4, §5, §6

[5] = test system: Plasmodium falciparum, chloroquine-resistant strain W2; experiment: activity against P. falciparum in vitro, strain W2; settings: chloroquine-resistant strain W2, 48 h-72 h, read-out: IC50 (50% growth inhibition)
Procedure: as §1, §2, §3, §4, §5, §6

[6] = test system: Plasmodium falciparum, chloroquine-sensitive strain Ro7 3; experiment: activity against P. falciparum in vitro, strain Ro7 3; settings: chloroquine-sensitive strain Ro7 3, 48 h-72 h, read-out: IC50 (50% growth inhibition)
Procedure: as §1, §2, §3, §4, §5, §6

[7] = test system: Plasmodium falciparum, chloroquine-resistant strain W2 Mef; experiment: activity against P. falciparum in vitro, strain W2 Mef; settings: 48 h-72 h, read-out: IC50 (50% growth inhibition)
Procedure: as §1, §2, §3, §4, §5, §6

[8] = test system: Plasmodium falciparum, chloroquine-resistant strain 7G8; experiment: activity against P. falciparum in vitro, strain 7G8; settings: chloroquine-resistant strain 7G8, 48 h-72 h, read-out: IC50 (50% growth inhibition)
Procedure: as §1, §2, §3, §4, §5, §6

[9] = test system: Plasmodium falciparum, chloroquine-sensitive strain HB3; experiment: activity against P. falciparum in vitro, strain HB3; settings: chloroquine-sensitive strain HB3, 48 h-72 h, read-out: IC50 (50% growth inhibition)
Procedure: as §1, §2, §3, §4, §5, §6

[10] = test system: Plasmodium falciparum, chloroquine-sensitive strain RFMEF3; experiment: activity against P. falciparum in vitro, strain RFMEF3; settings: chloroquine-sensitive strain RFMEF3, 48 h-72 h, read-out: IC50 (50% growth inhibition)
Procedure: as §1, §2, §3, §4, §5, §6

[11] = test system: Plasmodium falciparum, chloroquine-resistant strain ItG2 F6; experiment: activity against P. falciparum in vitro, strain ItG2 F6; settings: chloroquine-resistant strain ItG2 F6, 48 h-72 h, read-out: IC50 (50% growth inhibition)
Procedure: as §1, §2, §3, §4, §5, §6

[12] = test system: Plasmodium falciparum, chloroquine-sensitive strain FCH5C2; experiment: activity against P. falciparum in vitro, strain FCH5C2; settings: chloroquine-sensitive strain FCH5C2, 48 h-72 h, read-out: IC50 (50% growth inhibition)
Procedure: as §1, §2, §3, §4, §5, §6

Row | SMILES | IC50 [1] | IC50 [2] | IC50 [3] | IC50 [4] | IC50 [5] | IC50 [6] | IC50 [7] | IC50 [8] | IC50 [9] | IC50 [10] | IC50 [11] | IC50 [12]
1 | Clc1ccc2c(NCCN3CCCCC3)ccnc2c1 [Example 8, (7-Chloro-quinolin-4-yl)-(2-piperidin-1-yl-ethyl)-amine] | 10 ng/mL (≈ 0.0345 µM) | 5 ng/mL (≈ 0.0173 µM) | 11 ng/mL (≈ 0.038 µM) | 5 ng/mL (≈ 0.0173 µM) | 11 ng/mL (≈ 0.038 µM) | 4 ng/mL (≈ 0.0138 µM) | 9 ng/mL (≈ 0.0311 µM) | 7 ng/mL (≈ 0.0242 µM) | 7 ng/mL (≈ 0.0242 µM) | 9 ng/mL (≈ 0.0311 µM) | 4 ng/mL (≈ 0.0138 µM) | 9 ng/mL (≈ 0.0311 µM)
2 | C[C@@H]1CCC[C@H](C)N1CCNc1ccnc2cc(Cl)ccc12 [Example 28, (2R,6S)-(7-Chloro-quinolin-4-yl)-[2-(2,6-dimethyl-piperidin-1-yl)-ethyl]-amine] | 16 ng/mL (≈ 0.0503 µM) | 7 ng/mL (≈ 0.022 µM) | 16 ng/mL (≈ 0.0503 µM) | 9 ng/mL (≈ 0.0283 µM) | 18 ng/mL (≈ 0.0566 µM) | 5 ng/mL (≈ 0.0157 µM) | 15 ng/mL (≈ 0.0472 µM) | 9 ng/mL (≈ 0.0283 µM) | 11 ng/mL (≈ 0.0346 µM) | 9 ng/mL (≈ 0.0283 µM) | 6 ng/mL (≈ 0.0189 µM) | 14 ng/mL (≈ 0.044 µM)
3 | CC1CC(C)CN(CCNc2ccnc3cc(Cl)ccc23)C1 (stereo not drawn) [Example 29, (7-Chloro-quinolin-4-yl)-[2-(3,5-dimethyl-piperidin-1-yl)-ethyl]-amine] | 11 ng/mL (≈ 0.0346 µM) | 6 ng/mL (≈ 0.0189 µM) | 16 ng/mL (≈ 0.0503 µM) | 7 ng/mL (≈ 0.022 µM) | 15 ng/mL (≈ 0.0472 µM) | 3 ng/mL (≈ 0.00944 µM) | 11 ng/mL (≈ 0.0346 µM) | 5 ng/mL (≈ 0.0157 µM) | 7 ng/mL (≈ 0.022 µM) | 5 ng/mL (≈ 0.0157 µM) | 6 ng/mL (≈ 0.0189 µM) | 6 ng/mL (≈ 0.0189 µM)
4 | Clc1ccc2c(NCCN3CCC4CCCCC43)ccnc2c1 (stereo not drawn) [Example 31] | 14 ng/mL (≈ 0.0424 µM) | 5 ng/mL (≈ 0.0152 µM) | 11 ng/mL (≈ 0.0333 µM) | 7 ng/mL (≈ 0.0212 µM) | 14 ng/mL (≈ 0.0424 µM) | 5 ng/mL (≈ 0.0152 µM) | 7 ng/mL (≈ 0.0212 µM) | 9 ng/mL (≈ 0.0273 µM) | 5 ng/mL (≈ 0.0152 µM) | 6 ng/mL (≈ 0.0182 µM) | 7 ng/mL (≈ 0.0212 µM) | 5 ng/mL (≈ 0.0152 µM)
5 | CC1(C)CCCN(CCNc2ccnc3cc(Cl)ccc23)C1 [Example 25, (7-Chloro-quinolin-4-yl)-[2-(3,3-dimethyl-piperidin-1-yl)-ethyl]-amine] | 14 ng/mL (≈ 0.044 µM) | 8 ng/mL (≈ 0.0252 µM) | 22 ng/mL (≈ 0.0692 µM) | 15 ng/mL (≈ 0.0472 µM) | 26 ng/mL (≈ 0.0818 µM) | 5 ng/mL (≈ 0.0157 µM) | 16 ng/mL (≈ 0.0503 µM) | 11 ng/mL (≈ 0.0346 µM) | 10 ng/mL (≈ 0.0315 µM) | 8 ng/mL (≈ 0.0252 µM) | 8 ng/mL (≈ 0.0252 µM) | 8 ng/mL (≈ 0.0252 µM)
6 | CC1CCCCN1CCNc1ccnc2cc(Cl)ccc12 (racemic) [Example 26, (RS)-(7-Chloro-quinolin-4-yl)-[2-(2-methyl-piperidin-1-yl) -ethyl]-amine] | 8 ng/mL (≈ 0.0263 µM) | 7 ng/mL (≈ 0.023 µM) | 15 ng/mL (≈ 0.0494 µM) | 9 ng/mL (≈ 0.0296 µM) | 15 ng/mL (≈ 0.0494 µM) | 5 ng/mL (≈ 0.0165 µM) | 13 ng/mL (≈ 0.0428 µM) | 8 ng/mL (≈ 0.0263 µM) | 8 ng/mL (≈ 0.0263 µM) | 9 ng/mL (≈ 0.0296 µM) | 6 ng/mL (≈ 0.0197 µM) | 8 ng/mL (≈ 0.0263 µM)
7 | Clc1ccc2c(NCCN3CC4CCC(CC4)C3)ccnc2c1 [Example 32] | 16 ng/mL (≈ 0.0485 µM) | 7 ng/mL (≈ 0.0212 µM) | 16 ng/mL (≈ 0.0485 µM) | 15 ng/mL (≈ 0.0455 µM) | 15 ng/mL (≈ 0.0455 µM) | 7 ng/mL (≈ 0.0212 µM) | 13 ng/mL (≈ 0.0394 µM) | 15 ng/mL (≈ 0.0455 µM) | 9 ng/mL (≈ 0.0273 µM) | 8 ng/mL (≈ 0.0243 µM) | 10 ng/mL (≈ 0.0303 µM) | 9 ng/mL (≈ 0.0273 µM)
8 | CC1CCN(CCNc2ccnc3cc(Cl)ccc23)CC1 [Example 24, (7-Chloro-quinolin-4-yl)-[2-(4-methyl-piperidin-1-yl)-ethyl]-amine] | 9 ng/mL (≈ 0.0296 µM) | 7 ng/mL (≈ 0.023 µM) | 15 ng/mL (≈ 0.0494 µM) | 8 ng/mL (≈ 0.0263 µM) | 15 ng/mL (≈ 0.0494 µM) | 4 ng/mL (≈ 0.0132 µM) | 9 ng/mL (≈ 0.0296 µM) | 7 ng/mL (≈ 0.023 µM) | 7 ng/mL (≈ 0.023 µM) | 7 ng/mL (≈ 0.023 µM) | 6 ng/mL (≈ 0.0197 µM) | 7 ng/mL (≈ 0.023 µM)
